Assay results taken from patent US8809535B2, “Substituted pyridines having herbicidal action” (BASF SE, priority 2010, dated 2014).

Experiments:
Test in all cases: greenhouse post-emergence herbicidal test
GALAP = assay type: in vivo, Galium aparine; details: application rate 0.25 kg/ha, scale 0 to 100
Excerpt: (§1) The culture containers used were plastic flowerpots containing loamy sand with approximately 3.0% of humus as the substrate. The seeds of the test plants were sown separately for each species.
(§2) For the post-emergence treatment, the test plants were first grown to a height of 3 to 15 cm, depending on the plant habit, and only then treated with the active ingredients which had been suspended or emulsified in water. For this purpose, the test plants were either sown directly and grown in the same containers, or they were first grown separately as seedlings and transplanted into the test containers a few days prior to treatment.
(§3) Depending on the species, the plants were kept at 10-25° C. or 20-35° C. The test period extended over 2 to 4 weeks. During this time, the plants were tended, and their response to the individual treatments was evaluated.
(§4) Evaluation was carried out using a scale from 0 to 100. 100 means no emergence of the plants, or complete destruction of at least the aerial moieties, and 0 means no damage, or normal course of growth. A good herbicidal activity is given at values of at least 70 and a very good herbicidal activity is given at values of at least 85.
(§5) The plants used in the greenhouse experiments belonged to the following species: […]

SETVI = assay type: in vivo, Setaria viridis; details: application rate 0.25 kg/ha, scale 0 to 100
Excerpt: as §1, §2, §3, §4, §5

ECHCG = assay type: in vivo, Echinochloa crus-galli; details: application rate 0.177 kg/ha, scale 0 to 100
Excerpt: as §1, §2, §3, §4, §5

## O=c1oc2cccnc2c(O)c1-c1cc(Cl)cc(N2CCOCC2)c1C(F)(F)F [Compound I-49, 3-[5-chloro-3-morpholino-2-(trifluoromethyl)phenyl]-4-hydroxy-pyrano[3,2-b]pyridin-2-one]
GALAP
  herbicidal activity against GALAP: very good herbicidal activity (a very good herbicidal activity is given at values of at least 85)
SETVI
  herbicidal activity against SETVI: very good herbicidal activity (a very good herbicidal activity is given at values of at least 85)

## O=c1oc2cccnc2c(O)c1-c1cccc(N2CCOCC2)c1C(F)(F)F [Compound I-26]
ECHCG
  herbicidal activity against ECHCG: very good herbicidal activity (a very good herbicidal activity is given at values of at least 85)
